Laboratory results as given in PubChem BioAssay (NCI).
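All cell lines were grown in 96-well plates and treated with compound for 48 hours. GI50: concentration for 50% inhibition of growth. TGI marks complete inhibition of growth.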

What was measured:
Assay in all cases: inhibition of tumour cell growth, NCI panel, 48 h
[1] = system: SK-MEL-2 melanoma
[2] = system: HL-60(TB) leukemia
[3] = system: MOLT-4 leukemia
[4] = system: HOP-92 NSCLC
[5] = system: HT29 colon
[6] = system: SF-295 CNS
[7] = system: CAKI-1 renal
[8] = system: M14 melanoma
[9] = system: NCI-H23 lung
[10] = system: RPMI-8226 leukemia

Row | Compound | GI50 [1] | TGI [1] | GI50 [2] | TGI [2] | GI50 [3] | TGI [3] | GI50 [4] | TGI [4] | GI50 [5] | TGI [5] | GI50 [6] | TGI [6] | GI50 [7] | TGI [7] | GI50 [8] | TGI [8] | GI50 [9] | TGI [9] | GI50 [10] | TGI [10]
1 | Nc1nc(Cl)c2ncn(Cc3ccc(C45CC6CC(CC(C6)C4)C5)c(OCc4cc(F)c(F)cc4F)c3)c2n1 | 5.84 µM | 20.4 µM | 1.06 µM | 2.85 µM | 0.837 µM | 2.71 µM | 2.02 µM | 6.03 µM | 3.45 µM | 22.7 µM | 3.44 µM | 17.1 µM | 2.37 µM | 5.48 µM | – | – | – | – | – | –
2 | C/C(=C/CCC(C)[C@@H]1CC[C@]2(C)C3=C(CC[C@@]12C)[C@@]1(C)CCC(=O)C(C)(C)[C@@H]1CC3)C(=O)O (some centres undefined) | 1.26 µM | 2.89 µM | 0.855 µM | 2.32 µM | 1.46 µM | 3.24 µM | 0.783 µM | 2.09 µM | 1.39 µM | 3.04 µM | 0.506 µM | 2.02 µM | 0.753 µM | 2.14 µM | 1.1 µM | 2.64 µM | 0.885 µM | 2.37 µM | – | –
3 | O=C(O)c1ccccc1C(=O)c1ccco1 | – | > 100 µM | – | > 100 µM | – | > 100 µM | – | > 100 µM | – | > 100 µM | – | > 100 µM | – | > 100 µM | – | > 100 µM | – | > 100 µM | – | –
4 | Cc1ccc(C(=O)Nc2ccc(Oc3cc4cnn(C)c4cc3-c3cn[nH]c3)c(F)c2)c(=O)n1-c1ccc(F)cc1 | 18.1 µM | > 100 µM | – | – | > 100 µM | > 100 µM | 2.34 µM | > 100 µM | 3.54 µM | > 100 µM | 0.0856 µM | > 100 µM | 3.25 µM | > 100 µM | 2.96 µM | > 100 µM | 8.97 µM | > 100 µM | > 48 µM | > 100 µM
5 | COC(=O)[C@]12CC[C@@H](C)[C@H](C)[C@@H]1C1=CC[C@@H]3[C@@]4(C)C(C=O)=C[C@@](C)(COS(C)(=O)=O)C4=CC[C@@]3(C)[C@]1(C)CC2 | 0.226 µM | 0.497 µM | 0.276 µM | 0.835 µM | 0.244 µM | 1.05 µM | 0.197 µM | 0.55 µM | 0.144 µM | 0.37 µM | 0.296 µM | 1.26 µM | – | – | 0.213 µM | 0.486 µM | 0.303 µM | 1.34 µM | 0.263 µM | 1.1 µM
6 | OC1=CN=C(c2ccccc2)Oc2ccccc21 | – | > 100 µM | – | > 100 µM | – | > 100 µM | – | > 100 µM | – | > 100 µM | – | > 100 µM | – | – | – | > 100 µM | – | > 100 µM | – | > 100 µM
7 | COc1cc2c(c3c1c(=O)c1ccccc1n3C)C=C([N+](=O)[O-])C(C)(C)O2 | – | – | – | > 100 µM | – | > 100 µM | – | > 100 µM | – | > 100 µM | – | > 100 µM | – | > 100 µM | – | – | – | > 100 µM | – | > 31.6 µM
8 | O=C(CI)NC(=O)NC(=O)NCc1ccccc1 | 7.5 µM | 21.6 µM | – | – | 0.969 µM | 3.15 µM | 1.71 µM | 6.29 µM | 2.66 µM | 6.72 µM | 14.1 µM | 31.9 µM | 1.69 µM | 3.12 µM | 2.89 µM | 10.8 µM | 4.32 µM | 19.5 µM | 3.2 µM | 9.71 µM
9 | CCOC(=O)c1cc(C(=O)c2ccc(OC)c(OC)c2)n2c1ccc1ccc3cccnc3c12 | 2.67 µM | 66.6 µM | 2.78 µM | > 100 µM | 4.53 µM | > 100 µM | 6.78 µM | > 100 µM | 1.42 µM | 23 µM | – | – | – | – | 0.648 µM | > 100 µM | 4 µM | > 100 µM | – | –
10 | CC(C)(C)OC(=O)N[C@H]1CC(=O)c2ccccc2N(CC(=O)O)C1=O | – | > 100 µM | – | > 100 µM | – | > 100 µM | – | > 100 µM | – | > 100 µM | – | > 100 µM | – | > 100 µM | – | > 100 µM | – | > 100 µM | – | –
11 | CCCC(O)[C@@]1(CC)CC(C)C(O)(C2(C)C[C@H](C)[C@@H](C(CC)C(=O)C(C)[C@@H](O)[C@H](C)C3OC(O)(C(CC)C(=O)O)[C@@H](C)C(O)C3CC)O2)O1 (some centres undefined) | – | 1.73 µM | – | 0.233 µM | – | – | – | 1.75 µM | – | 2.09 µM | – | 4.91 µM | – | 5.05 µM | – | 2.15 µM | – | 2.28 µM | – | –
12 | N#Cc1c(-c2ccccc2)c(-c2ccccc2)cc2c(=O)c3ccc(Cl)cc3[nH]c12 | – | > 100 µM | – | > 100 µM | – | > 100 µM | – | > 100 µM | – | > 100 µM | – | > 100 µM | – | – | – | – | – | > 100 µM | – | > 100 µM
13 | N#Cc1ccccc1Sc1ccccc1N | – | > 100 µM | – | > 100 µM | – | > 100 µM | – | > 100 µM | – | > 100 µM | – | > 100 µM | – | > 100 µM | – | – | – | > 100 µM | – | –
